“And” between values parts separate entries of the source, which are not always exact repeats. Equal entries are not always repeated. Where two headings read alike, the source gives them in different places.
Columns and labels:
ELIC Q264L = target: T1, ELIC Q264L (Dickeya chrysanthemi, UniProt P0C7B7, Q263L); assay type: biochemical, Erwinia chrysanthemi; conditions: 25 mol% outer leaflet POPG, 10 mM propylamine
T1 construct: host or cells: OverExpress C43 (DE3) E. coli
Method: (§1) The mutations were tested as for WT by examining the effect of 25 mol% outer leaflet POPG in paired (no exchange versus exchange) samples (Supplementary Fig. 15).
(§2) The fluorescence sequential-mixing stopped-flow liposomal flux measurements were carried using an SX20 stopped-flow spectrofluorometer (Applied Photophysics) and Pro-Data SX software[13],[30]. 7.5 mg of the respective lipid mixture (POPC, 1:1 POPC: POPE, 1:1 POPC:POPG, 3:1 POPC:POPE, 3:1 POPC:POPG, 2:1:1 POPC:POPE:POPG) was dried in a glass vial to a thin film under a constant stream of N2. The lipids were then further dried under vacuum in a desiccator overnight. The following day the lipids were hydrated in 500 µl of reconstitution buffer (100 mM NaNO3, 10 mM HEPES, pH 7) (Buffer R), 250 µl of 75 mM 8-Aminonaphthalene-1,3,6-Trisulfonic Acid (ANTS, ThermoFisher Scientific) in buffer R, and doped with ~18 mg of CHAPS (Anatrace). The mixture was vortexed and then sonicated with heat until completely solubilized. Following the sonication, the solution was brought to RT then 3.5 µl of 6.7 mg/ml ELIC in Buffer A with 0.02% DDM was added (3 µg per mg of lipid). This combined solution was incubated at RT for 30 min, followed by the addition of 1 ml of 1:1 v/v SM-2 BioBeads in Buffer R and an additional 250 µl of 75 mM ANTS in Buffer R. This mixture was incubated at RT for 2.5 hr with gentle mixing. The liposome suspension was then extruded with an Avanti mini-extruder and 0.1 µm membrane (30×). The extruded liposomes were stored at 13 °C overnight with gentle rotation. The next day, the liposomes were diluted to 2.5 mL using assay buffer (140 mM NaNO3, 10 mM HEPES, pH 7) (Stopped-flow Buffer A), loaded into a PD-10 desalting column (Cytiva), eluted with 3 mL of Stopped-flow Buffer A and subsequently diluted 5-fold with Stopped-flow Buffer A.
(§3) Using propylamine as the agonist, the assay and analysis was carried out as previously described[13],[30].

ELIC R318A = target: T2, ELIC R318A (Dickeya chrysanthemi, UniProt P0C7B7, R317A); assay type: biochemical, Erwinia chrysanthemi; conditions: 25 mol% outer leaflet POPG, 10 mM propylamine
T2 construct: host or cells: OverExpress C43 (DE3) E. coli
T2 sequence (P0C7B7 whole entry R317A): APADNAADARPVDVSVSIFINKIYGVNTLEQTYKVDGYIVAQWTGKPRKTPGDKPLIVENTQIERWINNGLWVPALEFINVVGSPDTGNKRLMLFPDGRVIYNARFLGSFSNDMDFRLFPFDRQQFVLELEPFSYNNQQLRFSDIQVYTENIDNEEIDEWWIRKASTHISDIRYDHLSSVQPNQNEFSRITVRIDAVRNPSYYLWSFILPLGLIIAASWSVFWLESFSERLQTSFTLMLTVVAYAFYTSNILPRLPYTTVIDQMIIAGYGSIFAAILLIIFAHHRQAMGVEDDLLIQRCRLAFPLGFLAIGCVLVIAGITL
Method: as §1, §2, §3

ELIC S202A = target: T3, ELIC S202A (Dickeya chrysanthemi, UniProt P0C7B7, S201A); assay type: biochemical, Erwinia chrysanthemi; conditions: 25 mol% outer leaflet POPG, 10 mM propylamine
T3 construct: host or cells: OverExpress C43 (DE3) E. coli
T3 sequence (P0C7B7 whole entry S201A): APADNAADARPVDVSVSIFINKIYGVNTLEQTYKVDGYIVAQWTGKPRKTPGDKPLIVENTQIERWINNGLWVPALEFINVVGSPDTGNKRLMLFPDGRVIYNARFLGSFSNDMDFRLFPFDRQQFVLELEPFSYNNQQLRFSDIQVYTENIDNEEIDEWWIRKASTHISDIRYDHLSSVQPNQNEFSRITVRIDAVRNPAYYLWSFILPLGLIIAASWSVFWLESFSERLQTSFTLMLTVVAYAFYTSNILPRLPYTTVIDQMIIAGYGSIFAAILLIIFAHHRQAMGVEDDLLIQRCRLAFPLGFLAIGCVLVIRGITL
Method: as §1, §2, §3

ELIC T259A = target: T4, ELIC T259A (Dickeya chrysanthemi, UniProt P0C7B7, T258A/T259A); assay type: biochemical, Erwinia chrysanthemi; conditions: 25 mol% outer leaflet POPG, 10 mM propylamine
T4 construct: host or cells: OverExpress C43 (DE3) E. coli
T4 sequence (P0C7B7 whole entry T258A/T259A): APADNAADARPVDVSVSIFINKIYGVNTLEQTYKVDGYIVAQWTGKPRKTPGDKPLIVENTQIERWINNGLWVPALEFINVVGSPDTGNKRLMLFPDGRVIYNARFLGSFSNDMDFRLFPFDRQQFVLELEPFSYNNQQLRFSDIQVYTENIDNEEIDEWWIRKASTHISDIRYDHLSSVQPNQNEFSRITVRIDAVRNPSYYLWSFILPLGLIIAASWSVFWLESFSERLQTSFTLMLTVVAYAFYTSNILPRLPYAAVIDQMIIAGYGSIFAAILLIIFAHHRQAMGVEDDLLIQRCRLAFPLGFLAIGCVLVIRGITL
Method: as §1, §2, §3

ELIC W206F = target: T5, ELIC W206F (Dickeya chrysanthemi, UniProt P0C7B7, W205F); assay type: biochemical, Erwinia chrysanthemi; conditions: 25 mol% outer leaflet POPG, 10 mM propylamine
T5 construct: host or cells: OverExpress C43 (DE3) E. coli
T5 sequence (P0C7B7 whole entry W205F): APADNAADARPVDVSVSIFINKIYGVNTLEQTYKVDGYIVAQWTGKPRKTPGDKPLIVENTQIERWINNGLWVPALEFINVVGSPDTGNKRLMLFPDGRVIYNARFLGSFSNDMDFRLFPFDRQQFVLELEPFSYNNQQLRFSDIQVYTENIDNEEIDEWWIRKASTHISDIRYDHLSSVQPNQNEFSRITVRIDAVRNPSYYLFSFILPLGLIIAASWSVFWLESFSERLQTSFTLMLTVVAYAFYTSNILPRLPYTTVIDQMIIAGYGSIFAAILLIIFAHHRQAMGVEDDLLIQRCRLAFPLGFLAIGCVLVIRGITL
Method: as §1, §2, §3

WT ELIC [1] = conditions: without BaCl2; cited from earlier work
WT ELIC [2] = test: Tryptophan stopped-flow fluorescence measurements (rapid mixing with agonist, DDM); assay type: biochemical, Erwinia chrysanthemi; conditions: for Normalized change in TRP fluorescence: single experiments
Method: To measure the tryptophan (Trp) fluorescence emission of ELIC, WT or W206F ELIC was diluted to 3 ml (0.02 mg/ml) and an emission spectrum was collected in a quartz fluorescence cell using a Fluoromax Plus Spectrofluorometer (Horiba Scientific). Excitation was set at 295 nm and an emission spectrum was collected from 320 to 380 nm. Trp fluorescence measurements with rapid mixing of agonist was carried out using the SX20 stopped-flow spectrofluorometer, outfitted with a 295 nm LED excitation source. Purified ELIC was diluted to 0.1 mg/ml in Trp Stopped-flow Buffer A (10 mM Tris pH 7.5, 100 mM NaCl, 0.05% DDM). A single mixing experiment was performed by mixing ELIC with equal volumes of Buffer A + propylamine. Propylamine was prepared at varying concentrations at 2x the final concentration. The instrument dead time was ~1 ms, enabling capture of most of the time course of change in Trp fluorescence. The time course of decrease in Trp fluorescence after rapid mixing with propylamine was fit to a single exponential to obtain a time constant for the rate of decrease and a measure of the extent of decrease. All replicates were taken from distinct samples.

T1 sequence (P0C7B7 whole entry Q263L): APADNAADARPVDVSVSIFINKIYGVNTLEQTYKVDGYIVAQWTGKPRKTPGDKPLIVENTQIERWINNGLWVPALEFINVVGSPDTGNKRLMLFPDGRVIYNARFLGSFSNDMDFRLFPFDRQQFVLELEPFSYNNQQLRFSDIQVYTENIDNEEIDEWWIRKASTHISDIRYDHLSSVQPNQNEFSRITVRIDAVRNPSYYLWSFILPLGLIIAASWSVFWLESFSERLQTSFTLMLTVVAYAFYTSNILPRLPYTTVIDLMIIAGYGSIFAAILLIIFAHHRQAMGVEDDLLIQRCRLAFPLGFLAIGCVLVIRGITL

With `CCCCCCCC/C=C\CCCCCCCC(=O)OC(COC(=O)CCCCCCCCCCCCCCC)COP(=O)(O)OCC(O)CO` (stereo not drawn) [POPG, 1-palmitoyl-2-oleoyl-phosphatidylglycerol] the “POPG modulation (peak response and desensitization)” value (from here on “POPG modulation”) (ELIC Q264L) was “POPG modulation is preserved”, the “increase in the measurable peak response” value (ELIC Q264L) was 2 × and the “POPG modulation” value (ELIC R318A) was “POPG only decreases desensitization”. For the same compound, the “POPG modulation” value (ELIC S202A) was “both effects of POPG (increased peak response and decreased desensitization) are abolished”, the “POPG modulation” value (ELIC T259A) was “POPG only decreases desensitization” and the “POPG modulation” value (ELIC W206F) was “POPG only decreases desensitization”.

In the case of `NCCS` [cysteamine], the EC50 (WT ELIC [1]) is listed as 1 to 2 mM.

In the case of `CCCN` [propylamine], the “time constant of TRP fluorescence decrease” value (WT ELIC [2]; 10 mM propylamine, DDM) is reported as 9.9 ± 0.6 ms, the “Normalized change in TRP fluorescence, Average” value (from here on “Normalized change … Average”) (WT ELIC [2]; DDM, Propylamine 0.3 mM) is reported as 0.01079 and the “Normalized change … Average” value (WT ELIC [2]; DDM, Propylamine 1 mM) is reported as 0.08703. For the same compound, the “Normalized change … Average” value (WT ELIC [2]; DDM, Propylamine 3 mM) was 0.49, the “Normalized change in TRP fluorescence” value (WT ELIC [2]; DDM, Propylamine 3 mM) was 0.3909 and 0.6901 and 0.389 and the “Normalized change … Average” value (WT ELIC [2]; DDM, Propylamine 10 mM) was 0.7765. The “Normalized change in TRP fluorescence” value (WT ELIC [2]; DDM, Propylamine 10 mM) was 0.6381 and 0.8944 and 0.797, the “Normalized change … Average” value (WT ELIC [2]; DDM, Propylamine 30 mM) was 0.9154 and the “Normalized change in TRP fluorescence” value (WT ELIC [2]; DDM, Propylamine 30 mM) was 0.9392 and 0.8561 and 0.951. The “Normalized change … Average” value (WT ELIC [2]; DDM, Propylamine 100 mM) was 1, the “Normalized change in TRP fluorescence” value (WT ELIC [2]; DDM, Propylamine 100 mM) was 1 and the “Hill n of normalized change in TRP fluorescence” value (WT ELIC [2]; ELIC in DDM) was 1.6 ± 0.3. For the same compound, the EC50 (WT ELIC [2]; ELIC in DDM, Hill fit, read-out: EC50 of normalized change in TRP fluorescence) was 4.3 ± 0.8 mM and the “rate of decrease in tryptophan fluorescence relative to channel opening (fold faster)” value (WT ELIC [2]; vs Tl+ flux in 2:1:1 or POPC liposomes) was 2–4 ×.

Reference: article PMC9668969 (Nature Communications, 2022)
